Assays:
Assay type in all cases: cell-based
[1] = tested on: siRNA-mediated mRNA degradation and gene knock-down (GFP siRNA); test: GFP reporter screen: 293 cells stably expressing GFP and an siRNA hairpin against GFP; settings: human 293 cells, GFP reporter with siRNA hairpin against GFP; Spectrum Collection screen
Experimental: FIG. 2 discloses one embodiment of the cell-based reporter system of the invention. In this example, a human 293-cell line stably expressing a reporter gene, GFP, was used. This cell line was further transfected with a construct that expresses siRNA hairpin against GFP, which can decrease the level of GFP expression. Individual clones were isolated with greatly (although not completely) reduced GFP expression.
Using the above-identified clones, a screen was performed using The Spectrum Collection (MicroSource Discovery Systems, Inc., Gaylordsville, Conn., United States of America), which contains 2000 biologically active and structurally diverse compounds from libraries of known drugs, experimental bioactives, and pure natural products. For example, in one embodiment, a pilot screen of this library identified one inhibitor and one enhancer of siRNA-mediated mRNA degradation.
To identify the chemical compounds that modulate the siRNA and miRNA pathway, a screening strategy was used. A human 293-cell line stably expressing a reporter gene, GFP, was used. This cell line was further transfected with a construct that expresses siRNA hairpin against GFP, which could knock down the expression of GFP. […]

[2] = tested on: shRNA against Luciferase mRNA; test: GL-3 luciferase reporter transfected into cells expressing shRNA against Luciferase mRNA; settings: GL-3 luciferase plus shLuc, FIG. 5
Description: In this example, a luciferase reporter construct GL-3 was transfected into the cells expressing shRNA against Luciferase mRNA.

[3] = tested on: miR-30a-3p; test: miRNA sensor (Luc-T30 reporter with miR-30a-3p target sites), dual luciferase assay of HepG2 cells; settings: reporter with miR-30 target sequence, endogenously expressed miR-30, FIG. 7
Experimental: In FIG. 6, top left panel, the blue arrowheads in Luc-T30 indicate artificial target sequence against miR-30a-3p. Luc-AT30 has an artificial sequence complementary to that in Luc-T30. […] Relative luciferase activity was calculated by dividing the reporter (Firefly) luciferase activity with co-transfected Renilla luciferase activity. Luciferase activity was decreased by transfecting Luc-T30 in HepG2 (orange bars) without changes in the amount of its mRNA (blue bars). Error bars represent the standard deviation (SD) of three triplicate experiments. […] Error bars represent the standard deviation (SD) from three triplicate experiments. **P=0.004; *****P=0.00001.
This reporter contains the target sequence of miR-30. In the miR-30 system, the endogenously expressed miR-30 was used and, in this cell line, miR-30 has been processed completely. Thus, the addition of enoxacin had no effect.

SMILES | effect on siRNA-mediated mRNA degradation and gene knock-down [1] | knock-down efficiency of shRNA against luciferase mRNA (relative luciferase activity) [2] | miRNA-mediated translational suppression [3] | knock-down efficiency of shRNA against luciferase mRNA (relative luciferase activity) ([2]; listed as ciproflaxin)
CCn1cc(C(=O)O)c(=O)c2cc(F)c(N3CCNCC3)nc21 [enoxacin] | enhance siRNA-mediated mRNA degradation and gene knock-down | increased the knock-down efficiency | no effect | 
O=C(O)c1cn(C2CC2)c2cc(N3CCNCC3)c(F)cc2c1=O [ciprofloxacin] |  | enhance siRNA-mediated mRNA degradation |  | increased the knock-down efficiency
COc1cc(C(=O)NCc2ccc(OCCN(C)C)cc2)cc(OC)c1OC [RNAi-I] |  |  | released the miRNA-mediated translational suppression | 
COc1cc(C(=O)NCc2ccc(OCCN(C)C)cc2)cc(OC)c1OC [trimethobenzamide] | inhibit siRNA-mediated mRNA degradation and gene knock-down |  |  | 
